Measurements as given in US20240424019A1, “SHP1 MODIFIED DENDRITIC CELLS AND EXTRACELLULAR VESICLES DERIVED THEREFROM AND ASSOCIATED METHODS” (BOARD OF REGENTS, THE UNIVERSITY OF TEXAS SYSTEM, priority 2021, published 2024).

Tests used:
human IFN-γ+CD8+ T cells = experiment: Coculture of human MoDCs with autologous T cells; format: cell-based; details: VitE-treated vs vehicle-treated autologous MoDCs
Description: FIG. 2A: Percentage of human IFN-γ^+CD8^+ T cells in CD8^+ T cells in coculture with vehicle or VitE-treated autologous MoDCs (n=3). FIG. 2B: Representative flow cytometric analysis and quantification of antigen-specific OT-1 T cell proliferation stimulated with OVA-loaded mouse BMDCs that were treated with vehicle or VitE at day 3. FIG. 2C: Tumor growth curves of orthotopic EMT6 tumor-bearing mice treated with vehicle (Ctrl), Vitamin E (VitE), or VitE plus Cyt c (10 mg/kg. i.v, every other day starting on day 3) to deplete DCs (n=8/group). The statistical significance is defined by P-value: *P<0.05, **P<0.01, ***P<0.001. ****P<0.0001. Human leukocyte concentrate (buffy coat) was collected from healthy blood donor volunteers by MD Anderson Blood Donor Center. Written informed consent was obtained from all participating blood donors and the use of anonymized leftover specimens for scientific purposes was approved by the Ethics Committee of the MD Anderson Cancer Center. For the generation of monocyte-derived dendritic cells (MoDCs), peripheral blood of healthy individuals was applied to a Ficoll gradient (BD), and mononuclear cells were freshly isolated and cultured in the dish in a humidified incubator for 1 hour to let monocytes adhere. After removing the medium with non-adherent cells, the adherent monocytes were collected through vigorous pipetting. […]

pY564-SHP1 = experiment: Reverse phase protein array (RPPA) of BMDCs; format: cell-based, mouse; details: VitE 50 μg/ml, tumor conditioned media, 48 hours
Description: FIG. 3A: Volcano plot of reverse phase protein array (RPPA) data of mouse BMDCs treated with VitE (50 μg/ml) compared to those treated with vehicle control with tumor conditioned media (TCM) for 48 hours (n=3 independent samples). […] The grey dashed line indicates P-value of 0.05. FIG. 3B: t-SNEs by CyTOF and quantification comparing the intensity of pY564-SHP1 in TADCs from the vehicle-or VitE-treated EMT6 tumors at day 15 post-implantation. FIG. 3C: Top, SHP1 knockdown in BMDCs was effective. Bottom, CFSE-dilution analysis of OT-1 T cells co-cultured with OVA protein-pulsed BMDCs (ratio 10:1) with knockdown of SHP1 by siPtpn6 versus siCtrl (n=3). Right, quantification of OT-1 T-cell numbers under the indicated condition. FIG. 3D: The binding of VitE to purified SHP1 is analyzed by microscale thermophoresis (MST) binding assay. […] FIG. 3E: Relative tyrosine phosphatase activity of SHP1 immunoprecipitated from LPS (100 ng/ml)-activated DC2.4 cells in the presence of indicated doses of VitE (mean of triplicates). FIG. 3F: SHP1 tyrosine phosphatase activity in LPS (100 ng/ml)-activated BMDCs (n=6) treated with vehicle-or VitE (50 μg/ml). Error bars, s.e.m. ns, no significant. *P<0.05, **P<0.01. ***P<0.001, ****P<0.0001.
To explore the molecular mechanism of VitE on DCs function, we performed a reverse-phase protein array (RPPA) analysis on DCs. […]

## Cc1c(C)c2c(c(C)c1O)CC[C@@](C)(CCC[C@H](C)CCC[C@H](C)CCCC(C)C)O2 [VitE, D-α-Tocopherol]
Human IFN-γ+CD8+ T cells
  IFNγ+CD8+ T cells in coculture: increased autologous IFNγ+CD8+ cytotoxic T cells
pY564-SHP1
  phosphorylation of SHP1 at Y564 in DCs: decreased the phosphorylation at tyrosine 564 (Y564)
